Experimental data from PMC3820767, “Turning Defense into Offense: Defensin Mimetics as Novel Antibiotics Targeting Lipid II” (PLoS Pathogens, 2013).

How the values were obtained:
[1] = system: Streptococcus pneumonia (PRSP) MMX884; experiment: Broth microdilution susceptibility testing (CLSI); format: cell-based, Streptococcus pneumoniae; conditions: Streptococcus pneumoniae, PRSP, read-out: MIC Streptococcus pneumonia (PRSP) 884-NA
Method: (§1) The antibacterial activity of defensin mimetics against Staphylococcus aureus ATCC 29213 and Escherichia coli 25922 was carried out in a 96-well turbidimetric assay essentially as described previously with the following modifications: bacteria were exposed for 30 min to compounds in 10 mM phosphate buffer containing 5% DMSO prior to addition of 2× Muller-Hinton medium. Bacterial growth was monitored for 12 hours and data were analyzed as described. Determination of MICs was performed by Micromyx, LLC (Kalamazoo, Michigan) according to CLSI standards.

[2] = Cytotoxicity by MTT assay; format: cell-based, human; conditions: human, Caco-2 cells; concentration resulting in 50% cell survival, MTT, 24 h; read-out: Cytotoxicity (C50%) Caco-2
human red blood cells = experiment: Red Blood Cell (RBC) lysis; format: cell-based; conditions: human RBCs, 30 min, room temperature, up to 16× MIC
Method: The method described by Stasiuk et al. was followed in general. Defibrinated human blood (Valley BioMedical) was washed three times with buffer (10 mM Tris-HCl, pH 7.4, 0.9% NaCl) and resuspended to a final concentration of 3% RBCs immediately prior to performing the assay. One hundred eighty microliters of RBCs were added to 1020 µl buffer containing various concentrations of the investigational compound. […] DMSO alone (5% final concentration) served as the negative control to subtract the background, while a reaction with water substituted for buffer served as a positive control that completely lyses the RBCs. […] Incubation of compounds and RBCs proceeded for 30 minutes at room temperature, followed by centrifugation at 1,300× g for 5 minutes to pellet the RBCs. Finally, 300 µl of the supernatant was removed to a 96-well plate and the released hemoglobin was measured at A540 using a SpectraMax (Molecular Dynamics) plate reader. Prism (GraphPad) software was used for data analysis. Results were expressed as percent lysis compared to treatment of RBCs with deionized water, which completely ruptures the membrane. Analyses were performed by Micromyx, LLC (Kalamazoo, Michigan).

LUV leakage assay = experiment: LUV leakage assay
Method: Large unilamellar vesicles were prepared by the extrusion technique. Vesicles were made of Di-Palmoyl-Phosphatidyl Choline (DPPC, Avanti Polar Lipids) with or without 0.1 mol % Lipid II. Vesicles were prepared with 50 mM rhodamine, washed with saline solution and purified by G25 Sephadex column (GE healthcare). Compounds were diluted in saline solution in 96-well plate format and vesicles were added to each well. The increase of fluorescence intensity was measured at 612 nm (excitation at 544 nm) on a Molecular Dynamics spectrophotometer at 20 °C. Compound-induced leakage was expressed relative to the total amount of rhodamine released after lysis of the vesicles by addition of 10 µl of 20% Triton X-100.

[3] = system: Escherichia coli MMX102-ATCC 25922; experiment: Broth microdilution susceptibility testing (CLSI); format: cell-based; conditions: for MIC: Escherichia coli, ATCC25922, read-out: MIC Escherichia coli 102-25922
Method: as §1

[4] = system: Enterococcus faecalis (VRE) MMX848; experiment: Broth microdilution susceptibility testing (CLSI); format: cell-based; conditions: Enterococcus faecalis, VRE, read-out: MIC Enterococcus faecalis (VRE) 848-NA
Method: as §1

[5] = system: Streptococcus pneumoniae MMX1195-ATCC 49619; experiment: Broth microdilution susceptibility testing (CLSI); format: cell-based; conditions: Streptococcus pneumoniae, ATCC49619, read-out: MIC Streptococcus pneumoniae 1195-49619
Method: as §1

[6] = system: Staphylococcus aureus MMX100-ATCC 29213; experiment: Broth microdilution susceptibility testing (CLSI); format: cell-based; conditions: Staphylococcus aureus, ATCC29213, read-out: MIC Staphylococcus aureus 100-29213
Method: as §1

[7] = system: Pseudomonas aeruginosa MMX103-ATCC 27853; experiment: Broth microdilution susceptibility testing (CLSI); format: cell-based; conditions: Pseudomonas aeruginosa, ATCC27853, read-out: MIC Pseudomonas aeruginosa 103-27853
Method: as §1

[8] = system: Enterococcus faecalis MMX101-ATCC 29212; experiment: Broth microdilution susceptibility testing (CLSI); format: cell-based; conditions: Enterococcus faecalis, ATCC29212, read-out: MIC Enterococcus faecalis 101-29212
Method: as §1

[9] = system: Staphylococcus aureus (MRSA) MMX757; experiment: Broth microdilution susceptibility testing (CLSI); format: cell-based; conditions: Staphylococcus aureus, MRSA, read-out: MIC Staphylococcus aureus (MRSA) 757-NA
Method: as §1

SMILES	MIC [1]	IC50 at 24 h [2]	lysis of red blood cells (human red blood cells)	membrane rupture in LUVs (LUV leakage assay; LUVs with or without Lipid II)	MIC [3]	MIC [4]	MIC [5]	MIC [6]	MIC [7]	MIC [8]	MIC [9]	leakage of LUVs (LUV leakage assay; 8 µg/ml (16× MIC for S. aureus))	effect of Lipid II on compound-induced lysis of LUVs (LUV leakage assay; LUVs with vs without Lipid II)	MIC Escherichia coli 102-25922 [3]
CN(C)c1ccc(/C=C/c2cc(-c3ccccc3)[o+]c(-c3ccccc3)c2)cc1 [Compound 1499-1221]	> 8 µg/mL	8.9 µM	significant membrane rupture	significant membrane rupture in LUVs irrespective of Lipid II	> 16 µg/mL	2 µg/mL	> 8 µg/mL	0.25 µg/mL	> 16 µg/mL	2 µg/mL	0.5 µg/mL	–	–	–
CN1/C(=C/C=C/c2cc(-c3ccccc3)cc(-c3ccccc3)[o+]2)C(C)(C)c2ccccc21 [BAS00127538, 2,4-diphenyl-6-[(1E)-3-[(2E)-1,3,3-trimethyl-2,3-dihydro-1H-indol-2-ylidene]prop-1-en-1-yl]-1$l^4-pyran-1-ylium]	8 µg/mL	2.7 µM	does not induce lysis of red blood cells	–	4 µg/mL	1 µg/mL	8 µg/mL	0.5 µg/mL	> 8 µg/mL	1 µg/mL	0.5 µg/mL	significant leakage	reduced by the presence of Lipid II	4 µg/mL
